SMILES strings stand for the structures. Several values for one entry are separate records, joined by “and”; a condition that tells them apart may be missing. Identical values can stand only once. Inconclusive results and toxic doses are left out.

For 18 compounds, T/C results are on record in PubChem BioAssay AID328 (DTP/NCI, 2004).

The subject of this assay is BDF1 mice, P388 leukemia ip, median survival T/C. The assay can be described thus: NCI In Vivo Anticancer Drug Screen. Data for tumor model P388 Leukemia (intraperitoneal) in B6D2F1 (BDF1) mice. The conditions noted are these: endpoint: median survival time, higher = longer survival. The gist of the method:
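Reported as T/C, where T is the survival measurement in dosed animals and C the same measurement in vehicle controls.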

Where [1] appears, read: dose: 50.0 mg/kg/injection, schedule: Q01DX009 (ip), vehicle: saline with Tween-80.
Setting [2] is: dose: 100.0 mg/kg/injection, schedule: Q01DX009 (ip), vehicle: saline with Tween-80.
Where [3] appears, read: dose: 200.0 mg/kg/injection, schedule: Q01DX009 (ip), vehicle: saline with Tween-80.
[4] abbreviates: dose: 200.0 mg/kg/injection, schedule: Q01DX009 (ip), vehicle: Klucel (hydroxypropylcellulose) (HPC).
Setting [5] is: dose: 12.5 mg/kg/injection, schedule: Q01DX009 (ip), vehicle: saline.
[6] abbreviates: dose: 100.0 mg/kg/injection, schedule: Q04DX003 (ip), vehicle: Klucel (hydroxypropylcellulose) (HPC).
Where [7] appears, read: dose: 200.0 mg/kg/injection, schedule: Q04DX003 (ip), vehicle: Klucel (hydroxypropylcellulose) (HPC).
Where [8] appears, read: dose: 400.0 mg/kg/injection, schedule: Q04DX003 (ip), vehicle: Klucel (hydroxypropylcellulose) (HPC).
Where [9] appears, read: dose: 100.0 mg/kg/injection, schedule: Q01DX009 (ip), vehicle: other.
Where [10] appears, read: dose: 100.0 mg/kg/injection, schedule: Q04DX003 (ip), vehicle: saline with Tween-80.
Where [11] appears, read: dose: 200.0 mg/kg/injection, schedule: Q04DX003 (ip), vehicle: saline with Tween-80.
Setting [12] is: dose: 400.0 mg/kg/injection, schedule: Q04DX003 (ip), vehicle: saline with Tween-80.

Regarding `CC(=O)NC(CCCCNC(=O)OCc1ccccc1)C(=O)O` (stereo not given), the T/C (dose: 50.0 mg/kg/injection, schedule: Q01DX005 (ip), vehicle: saline with Tween-80) is 90 % of control; the T/C (dose: 100.0 mg/kg/injection, schedule: Q01DX005 (ip), vehicle: saline with Tween-80) was 93 % of control; the T/C (dose: 200.0 mg/kg/injection, schedule: Q01DX005 (ip), vehicle: saline with Tween-80) is 89 % of control.

For `O=C(Nc1ccc(Cc2ccc(NC(=O)Nc3nc4ccccc4s3)cc2)cc1)Nc1nc2ccccc2s1`, the T/C is 94 % of control under setting [1], 89 % of control under setting [2] and 100 % of control under setting [3].

For the compound `O=C(NC(=O)c1c(F)cccc1F)Nc1ccc(OCc2ccccc2)cc1`, the T/C runs as follows: under setting [1], 93 % of control; under setting [2], 86 % of control.

Regarding `CC(=O)Nc1ccc(NC(=O)c2ccc([As](O)O)cc2)cc1`, the T/C is 109 % of control (dose: 29.0 mg/kg/injection, schedule: Q04DX003 (ip), vehicle: Klucel (hydroxypropylcellulose) (HPC)); 102 % of control (dose: 45.0 mg/kg/injection, schedule: Q01DX009 (ip), vehicle: saline); 113 % of control (dose: 45.0 mg/kg/injection, schedule: Q04DX003 (ip), vehicle: Klucel (hydroxypropylcellulose) (HPC)); 116 % of control (dose: 65.0 mg/kg/injection, schedule: Q01DX009 (ip), vehicle: saline); 170 % of control under setting [4]; 159 % of control (dose: 265.0 mg/kg/injection, schedule: Q01DX009 (ip), vehicle: Klucel (hydroxypropylcellulose) (HPC)).

Take `O=S(=O)(ON=C1C=CC(=NOS(=O)(=O)c2ccccc2)C=C1)c1ccccc1`: the T/C runs as follows: (dose: 3.13 mg/kg/injection, schedule: Q04DX003 (ip), vehicle: Klucel (hydroxypropylcellulose) (HPC)) 109 % of control; (dose: 6.25 mg/kg/injection, schedule: Q04DX003 (ip), vehicle: Klucel (hydroxypropylcellulose) (HPC)) 111 % of control; (dose: 12.5 mg/kg/injection, schedule: Q04DX003 (ip), vehicle: Klucel (hydroxypropylcellulose) (HPC)) 109 % of control; (dose: 25.0 mg/kg/injection, schedule: Q04DX003 (ip), vehicle: Klucel (hydroxypropylcellulose) (HPC)) 109 % of control.

Regarding `C=C(CC(=O)O)C(=O)O` (tested in a mixture with another compound), the T/C (dose: 44.0 mg/kg/injection, schedule: Q01DX009 (ip), vehicle: saline) was 120 % of control.

As to `O=C(O)C(=O)O.O=C([O-])C(=O)O.O=C([O-])C(=O)O.O=C([O-])C(=O)[O-].[K+].[U]`, the T/C is, setting by setting: (dose: 1.02 mg/kg/injection, schedule: Q01DX009 (ip), vehicle: saline) 90 % of control; (dose: 1.56 mg/kg/injection, schedule: Q01DX009 (ip), vehicle: saline) 91 % of control; (dose: 2.34 mg/kg/injection, schedule: Q01DX009 (ip), vehicle: saline) 95 % of control; (dose: 6.25 mg/kg/injection, schedule: Q01DX009 (ip), vehicle: saline) 95 % of control; (dose: 6.25 mg/kg/injection, schedule: Q04DX003 (ip), vehicle: saline) 90 % of control; under setting [5], 100 % of control. Besides, the T/C (dose: 50.0 mg/kg/injection, schedule: Q04DX003 (ip), vehicle: saline) is 86 % of control.

For the compound `C/C(N=Nc1ccccc1)=N\Nc1cccc(C(F)(F)F)c1`, the T/C (dose: 50.0 mg/kg/injection, schedule: Q01DX009 (ip), vehicle: Klucel (hydroxypropylcellulose) (HPC)) is 100 % of control; the T/C (dose: 100.0 mg/kg/injection, schedule: Q01DX009 (ip), vehicle: Klucel (hydroxypropylcellulose) (HPC)) was 105 % of control; the T/C under setting [6] was 104 % of control; the T/C under setting [4] is 100 % of control; the T/C under setting [7] was 104 % of control; the T/C under setting [8] is 108 % of control.

For the compound `NC(=S)N/N=C\c1ncccc1OCc1cccc(N)c1`, the T/C runs as follows: (dose: 25.0 mg/kg/injection, schedule: Q01DX009 (ip), vehicle: other) 165 % of control; (dose: 50.0 mg/kg/injection, schedule: Q01DX009 (ip), vehicle: other) 150 % of control; under setting [9], 163 % of control; (dose: 200.0 mg/kg/injection, schedule: Q01DX009 (ip), vehicle: other) 182 % of control.

`COc1cc2cccccc-2cc1=O`: the T/C under setting [6] was 110 % of control, the T/C under setting [7] is 115 % of control and the T/C under setting [8] was 115 % of control.

As for `CCc1ccccc1NC(=O)N1CCOCC1`, the T/C reads like this: under setting [1], 94 % of control; under setting [2], 102 % of control; under setting [3], 109 % of control.

Regarding `CC(=N\O)/C(=N\O)C(=O)c1ccccc1`, the T/C is, setting by setting: under setting [9], 91 % of control; under setting [10], 95 % of control; under setting [11], 95 % of control; under setting [12], 90 % of control.

For `Cc1cc2nc3n(c2cc1C)C(C)(C)N=C(N)N3`, the T/C by setting is: under setting [1], 102 % of control; under setting [2], 112 % of control.

Consider `CCN(CC)CCCC(C)Nc1ccnc2cc(Cl)ccc12` (stereo not given), for which the T/C (dose: 6.2 mg/kg/injection, schedule: Q01DX010 (ip), vehicle: saline) is 100 % of control; the T/C under setting [5] is 113 % of control; the T/C (dose: 12.5 mg/kg/injection, schedule: Q01DX010 (ip), vehicle: saline) was 90 % of control; the T/C (dose: 25.0 mg/kg/injection, schedule: Q01DX009 (ip), vehicle: saline) was 109 % of control; the T/C (dose: 25.0 mg/kg/injection, schedule: Q01DX010 (ip), vehicle: saline) is 95 % of control; the T/C (dose: 50.0 mg/kg/injection, schedule: Q01DX009 (ip), vehicle: saline) is 109 % of control. Further, the T/C (dose: 50.0 mg/kg/injection, schedule: Q01DX010 (ip), vehicle: saline) is 100 % of control and the T/C (dose: 75.0 mg/kg/injection, schedule: Q01DX009 (ip), vehicle: saline) was 104 % of control.

`O=C(NC(C(=O)O)c1ccccc1)OCc1ccccc1` (stereo not given): the T/C was 104 % of control under setting [10], 109 % of control under setting [11] and 100 % of control under setting [12].

Take `CN(C)c1ccc(C=Nc2ccc3c(c2)/C(=C/c2ccc(N(C)C)cc2)c2ccccc2-3)cc1`: the T/C is, setting by setting: (dose: 25.0 mg/kg/injection, schedule: Q04DX003 (ip), vehicle: saline with Tween-80) 116 % of control; (dose: 50.0 mg/kg/injection, schedule: Q04DX003 (ip), vehicle: saline with Tween-80) 122 % of control; under setting [10], 116 % of control; under setting [11], 121 % of control.

Turning to `COc1cccc2c1C(=O)c1c(O)c3c(c(O)c1C2=O)C[C@@](O)(C(=O)O)C[C@@H]3OC1CC(N)C(O)C(C)O1` (stereo not given in full), the T/C is, setting by setting: (dose: 1.56 mg/kg/injection, schedule: Q01DX009 (ip), vehicle: water) 100 % of control; (dose: 3.12 mg/kg/injection, schedule: Q01DX009 (ip), vehicle: water) 107 % of control and 109 % of control; (dose: 6.25 mg/kg/injection, schedule: Q01DX009 (ip), vehicle: water) 93 % of control.

With `Clc1nc(Cl)c(Nc2ccn[nH]2)nc1Cl`, the T/C was 100 % of control under setting [1]; 95 % of control and 100 % of control under setting [2]; 100 % of control under setting [3]; 95 % of control (dose: 400.0 mg/kg/injection, schedule: Q01DX009 (ip), vehicle: saline with Tween-80).
